Data reported in PubChem BioAssay AID2060354 (Molecular Pharmacology Branch, DTP, NCI, 2025).

Test system: 519858-162-T-J1-PDC spheroid growth inhibition
Assay: Anticancer human tumor 519858-162-T-J1-PDC patient-derived colon adenocarcinoma cell line growth inhibition [TAK]
Conditions: spheroids with HUVEC and MSC; for IC50: curve of first compound; for viability, T/C: stronger effect = lower value
Method in brief: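 Tumor cells were grown as spheroids with HUVEC and hMSC (60:25:15) and treated with targeted agents combined with TAK-243 or ipatasertib. Drugs were tested in half-log steps down from near the clinical Cmax, or from 10 microM where Cmax was unknown.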

[1] = second compound 0.3 µM, first compound 0.316 µM
[2] = second compound 0.3 µM, first compound 1 µM
[3] = second compound 0.949 µM, first compound 0.316 µM
[4] = second compound 0.949 µM, first compound 1 µM
[5] = second compound 3 µM, first compound 0.316 µM
[6] = second compound 3 µM, first compound 1 µM
[7] = second compound 9.49 µM, first compound 0.316 µM
[8] = second compound 9.49 µM, first compound 1 µM
[9] = second compound 30 µM, first compound 0.316 µM
[10] = second compound 30 µM, first compound 1 µM
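Further: spheroids exposed to drugs for 7 days.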

COc1c(OCCCN2CCOCC2)ccc2c3n(c(=NC(=O)c4cnc(N)nc4)nc12)CCN3 + CC(C)NCC(C(=O)N1CCN(c2ncnc3c2C(C)CC3O)CC1)c1ccc(Cl)cc1
IC50 (second compound 0.3 µM): 269 nM | IC50 (second compound 0.949 µM): 391 nM | IC50 (second compound 3 µM): > 1000 nM | IC50 (second compound 9.49 µM): > 1000 nM | IC50 (second compound 30 µM): 276 nM | viability, T/C (second compound 0.3 µM, first compound 0.00316 µM): 87.3% | viability, T/C (second compound 0.3 µM, first compound 0.01 µM): 78.4% | viability, T/C (second compound 0.3 µM, first compound 0.0316 µM): 65% | viability, T/C (second compound 0.3 µM, first compound 0.1 µM): 57.2% | viability, T/C [1]: 49.5% | viability, T/C [2]: 42.5% | viability, T/C (second compound 0.949 µM, first compound 0.00316 µM): 76.6% | viability, T/C (second compound 0.949 µM, first compound 0.01 µM): 75.1% | viability, T/C (second compound 0.949 µM, first compound 0.0316 µM): 73.8% | viability, T/C (second compound 0.949 µM, first compound 0.1 µM): 62.2% | viability, T/C [3]: 56.2% | viability, T/C [4]: 31.9% | viability, T/C (second compound 3 µM, first compound 0.00316 µM): 97.7% | viability, T/C (second compound 3 µM, first compound 0.01 µM): 71.4% | viability, T/C (second compound 3 µM, first compound 0.0316 µM): 68.1% | viability, T/C (second compound 3 µM, first compound 0.1 µM): 61.5% | viability, T/C [5]: 51% | viability, T/C [6]: 50.1% | viability, T/C (second compound 9.49 µM, first compound 0.00316 µM): 83.5% | viability, T/C (second compound 9.49 µM, first compound 0.01 µM): 87.2% | viability, T/C (second compound 9.49 µM, first compound 0.0316 µM): 72% | viability, T/C (second compound 9.49 µM, first compound 0.1 µM): 62.1% | viability, T/C [7]: 60.5% | viability, T/C [8]: 56.4% | viability, T/C (second compound 30 µM, first compound 0.00316 µM): 93.6% | viability, T/C (second compound 30 µM, first compound 0.01 µM): 77.6% | viability, T/C (second compound 30 µM, first compound 0.0316 µM): 73.6% | viability, T/C (second compound 30 µM, first compound 0.1 µM): 59.1% | viability, T/C [9]: 43% | viability, T/C [10]: 47.8%

CCCS(=O)(=O)Nc1ccc(F)c(C(=O)c2c[nH]c3ncc(-c4ccc(Cl)cc4)cc23)c1F + CC(C)NCC(C(=O)N1CCN(c2ncnc3c2C(C)CC3O)CC1)c1ccc(Cl)cc1
IC50 (second compound 0.3 µM): > 100000 nM | IC50 (second compound 0.949 µM): > 100000 nM | IC50 (second compound 3 µM): > 100000 nM | IC50 (second compound 9.49 µM): > 100000 nM | IC50 (second compound 30 µM): 30400 nM | viability, T/C [1]: 85.8% | viability, T/C [2]: 109% | viability, T/C (second compound 0.3 µM, first compound 3.16 µM): 95.8% | viability, T/C (second compound 0.3 µM, first compound 10 µM): 109% | viability, T/C (second compound 0.3 µM, first compound 31.6 µM): 90.6% | viability, T/C (second compound 0.3 µM, first compound 100 µM): 103% | viability, T/C [3]: 74.8% | viability, T/C [4]: 99.7% | viability, T/C (second compound 0.949 µM, first compound 3.16 µM): 118% | viability, T/C (second compound 0.949 µM, first compound 10 µM): 83.1% | viability, T/C (second compound 0.949 µM, first compound 31.6 µM): 51% | viability, T/C (second compound 0.949 µM, first compound 100 µM): 99.9% | viability, T/C [5]: 106% | viability, T/C [6]: 102% | viability, T/C (second compound 3 µM, first compound 3.16 µM): 114% | viability, T/C (second compound 3 µM, first compound 10 µM): 82.8% | viability, T/C (second compound 3 µM, first compound 31.6 µM): 99.8% | viability, T/C (second compound 3 µM, first compound 100 µM): 113% | viability, T/C [7]: 99.8% | viability, T/C [8]: 103% | viability, T/C (second compound 9.49 µM, first compound 3.16 µM): 84.8% | viability, T/C (second compound 9.49 µM, first compound 10 µM): 88.1% | viability, T/C (second compound 9.49 µM, first compound 31.6 µM): 77.9% | viability, T/C (second compound 9.49 µM, first compound 100 µM): 96% | viability, T/C [9]: 76.3% | viability, T/C [10]: 101% | viability, T/C (second compound 30 µM, first compound 3.16 µM): 94.9% | viability, T/C (second compound 30 µM, first compound 10 µM): 61% | viability, T/C (second compound 30 µM, first compound 31.6 µM): 23.6% | viability, T/C (second compound 30 µM, first compound 100 µM): 75.5%
